Assay [1] concerns Aspergillus niger. Nature of the assay: Antimicrobial activity against Aspergillus niger by agar diffusion method. The assay is classed as functional, organism-based. (In general: In agar diffusion tests the substance spreads into inoculated agar from a disc or well.)
For assay [2], the system named is Staphylococcus aureus. Nature of the assay: Antimicrobial activity against Staphylococcus aureus by agar diffusion method. The assay is classed as functional, organism-based.
Assay [3] deals with Escherichia coli. Nature of the assay: Antimicrobial activity against Escherichia coli by agar diffusion method. The assay is classed as functional, organism-based.
The test system of assay [4] is SMMC-7721. Nature of the assay: Cytotoxicity against human SMMC7721 cells by colorimetric assay. The assay is classed as functional, cell-based.
The test system of assay [5] is NCI-H460. Nature of the assay: Cytotoxicity against human NCI-H460 cells by colorimetric assay. The assay is classed as functional, cell-based.
Assay [6] concerns SW1990. Nature of the assay: Cytotoxicity against human SW1990 cells by colorimetric assay. The assay is classed as functional, cell-based.

We go through three molecules from ChEMBL document CHEMBL1629426, “7-Nor-ergosterolide, a pentalactone-containing norsteroid and related steroids from the marine-derived endophytic Aspergillus ochraceus EN-31” (J Nat Prod, 2010).

≈ marks a conversion by molar mass, not a printed value. Calls of active or inactive are those of the source. The calls are words filed in the database; no cut-off is given here.

For `C=C(CC[C@@H](C)[C@H]1CC[C@H]2C3=C(CC[C@]12C)[C@@]1(C)CC[C@H](O)C[C@@H]1CC3=O)C(C)C`, the result in assay [1], in assay [2] and in assay [3] was inactive.
In assay [4], `C=C(CC[C@@H](C)[C@H]1CC[C@H]2C3=C([C@H](O)C[C@]12C)[C@@]1(C)CC[C@H](O)C[C@@H]1CC3=O)C(C)C` registered an IC50 of 28 µg/mL (≈ 65.3 µM). Further, the outcome in assay [1], in assay [2] and in assay [3] was inactive.
For the molecule `C=C(CC[C@@H](C)[C@H]1CC[C@H]2C3=C(CC[C@]12C)[C@@]1(C)CC[C@H](O)C[C@@H]1C(=O)O3)C(C)C`, the IC50 in assay [4] amounted to 7 µg/mL (≈ 16.9 µM); in assay [5], 5 µg/mL (≈ 12.1 µM); in assay [6] it was 28 µg/mL (≈ 67.5 µM). The result in assay [1], in assay [2] and in assay [3] was inactive.

By IC50 is commonly meant the concentration that inhibits the measured activity by half. Read a high IC50 as weaker potency in that assay.
